Assay results: patent US4130559A, “Method for the preparation of 6-aminopenicillinic acid derivatives” (priority 1977, dated 1978)
≈ marks a conversion by molar mass, not a printed value. Like-named read-outs stand apart in the source and are kept apart here.

How the values were obtained:
Ps.aeruginosa = assay: Minimal bacteriostatic concentration; format: cell-based; conditions: Pseudomonas aeruginosa, sodium salts
Protocol: (§1) All compounds of this group were prepared in the form of sodium salts. Bactericidal activity, degree of hydrolysis with staphylococc penicillinase and acid resistance of the penicillins were determined.

Prot.vulgaris = assay: Minimal bacteriostatic concentration; format: cell-based; conditions: Proteus vulgaris, sodium salts
Protocol: as §1

Sh.dysenteriae Flexneri = assay: Minimal bacteriostatic concentration; format: cell-based; conditions: Shigella dysenteriae, read-out: Minimal Bacteriostatic Concentration
Protocol: as §1

Vibrion Metschnicoff = assay: Minimal bacteriostatic concentration; format: cell-based; conditions: Vibrion Metschnicoff; sodium salts; read-out: Minimal Bacteriostatic Concentration
Protocol: as §1

E.coli O-55 = assay: Minimal bacteriostatic concentration; format: cell-based; conditions: Escherichia coli
Protocol: as §1

Myco smegmatis = assay: Minimal bacteriostatic concentration; format: cell-based; conditions: sodium salts
Protocol: as §1

Staph. aureus 209p = assay: Minimal bacteriostatic concentration; format: cell-based; conditions: Staphylococcus aureus, sodium salts
Protocol: as §1

B.Subtitis ATCC6633 = assay: Minimal bacteriostatic concentration; format: cell-based; conditions: sodium salts
Protocol: as §1

Staph. albus = assay: Minimal bacteriostatic concentration; format: cell-based; conditions: sodium salts
Protocol: as §1

Strept. pyrogenes = assay: Minimal bacteriostatic concentration; format: cell-based; conditions: sodium salts
Protocol: as §1

E.typhi = assay: Minimal bacteriostatic concentration; format: cell-based; conditions: read-out: Minimal Bacteriostatic Concentration
Protocol: as §1

[1] = target: staphylococc penicillinase (Staphylococcus aureus, UniProt P00807); assay: Hydrolysis/inactivation by staphylococc penicillinase; format: biochemical; conditions: Table 5
staphylococc penicillinase, sequence (P00807 25-281): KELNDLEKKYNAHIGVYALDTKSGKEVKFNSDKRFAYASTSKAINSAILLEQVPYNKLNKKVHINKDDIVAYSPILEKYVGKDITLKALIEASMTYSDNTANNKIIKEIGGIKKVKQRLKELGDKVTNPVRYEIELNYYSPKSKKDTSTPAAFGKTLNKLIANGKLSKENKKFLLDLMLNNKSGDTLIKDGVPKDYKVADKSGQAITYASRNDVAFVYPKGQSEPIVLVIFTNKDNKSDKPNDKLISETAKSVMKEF
Protocol: as §1
The substitution of propoxy radical for iso-radical in this position is not accompanied by areduction of penicillin stability against penicillinase which is not observed in the orto- and para-positions. During the subsequent hours of inactivation the rate of hydrolysis of penicillins slightly increases. However, even when observed in dynamics, their stability against penicillianase still persists during 4-hour-inactivation.

in vivo = conditions: mouse, iv
[2] = Acid resistance (half-life period); format: physicochemical
Protocol: as §1

[3] = tested on: Staph. aureus 209p (adapted to benzylpenicillin); assay: Minimal bacteriostatic concentration; format: cell-based; conditions: Staphylococcus aureus, read-out: Minimal Bacteriostatic Concentration
Protocol: as §1

[4] = O55, read-out: Minimal Bacteriostatic Concentration
[5] = acid ph 1.3, Temperature 37° C, pH 1.3, Table 1, cyclopentyl series, read-out: τ1/2 half-life period (acid resistance)
[6] = O55, E.coli O-55, sodium salts, read-out: Minimal Bacteriostatic Concentration

SMILES | MIC (Ps.aeruginosa) [µg/mL] | MIC (Prot.vulgaris) [µg/mL] | MIC (Sh.dysenteriae Flexneri) [µg/mL] | MIC (Vibrion Metschnicoff) [µg/mL] | MIC (E.coli O-55; [4]) [µg/mL] | MIC (Myco smegmatis) [µg/mL] | MIC (Staph. aureus 209p) [µg/mL] | MIC (B.Subtitis ATCC6633) [µg/mL] | MIC (Staph. albus) [µg/mL] | MIC (Strept. pyrogenes) [µg/mL] | MIC (E.typhi) [µg/mL] | Quantity of inactivated units of compounds under the action of 1 unit of staphylococc penicillinase [1] [units] | MTD (in vivo) [mg/kg] | half-life [2, 5] [h] | MIC (E.coli O-55; [6]) [µg/mL] | MIC [3] [µg/mL] | half-life ([2]; acid ph 1.3, pH 1.3, under conditions of our experiments, read-out: half-life period) [h]
COc1ccc(C2(C(=O)NC3C(=O)N4C3SC(C)(C)C4C(=O)O)CCCC2)cc1 (centres unmarked) [Compound XII (Table 1)] | > 500 | 62.5 | 31.2 (≈ 74.5 µM) | 0.48 | 125 (≈ 299 µM) | > 500 | 0.19 | 0.24 | 0.19 | 0.048 | 7.8 (≈ 18.6 µM) | 40.3 | 2000 | 2.72 | – | – | –
COc1cccc(C2(C(=O)NC3C(=O)N4C3SC(C)(C)C4C(=O)O)CCCC2)c1 (centres unmarked) [Compound VII (Table 1)] | > 500 | 125 | 125 (≈ 299 µM) | – | – | > 500 | 0.39 | 1.56 | 0.39 | 0.39 | – | 14.2 | 2500 | 4.8 | 250 | > 500 | –
CC(C)Oc1cccc(C2(C(=O)NC3C(=O)N4C3SC(C)(C)C4C(=O)O)CCCC2)c1 (centres unmarked) [Compound X (Table 1)] | > 500 | 250 | 62.5 (≈ 140 µM) | 3.9 | 250 (≈ 560 µM) | > 500 | 0.39 | 7.8 | 0.19 | 0.19 | 15.6 (≈ 34.9 µM) | 27.5 | 1500 | 0.432 | – | > 500 | –
CCCCOc1ccc(C2(C(=O)NC3C(=O)N4C3SC(C)(C)C4C(=O)O)CCCC2)cc1 (centres unmarked) [Compound XVI (Table 1)] | > 500 | 125 | 62.5 (≈ 136 µM) | 0.48 | 125 (≈ 271 µM) | > 500 | 0.39 | 0.24 | 0.19 | 0.048 | 15.6 (≈ 33.9 µM) | 23.3 | 1500 | 0.72 | – | – | –
CCOc1ccc(C2(C(=O)NC3C(=O)N4C3SC(C)(C)C4C(=O)O)CCCC2)cc1 (centres unmarked) [Compound XIII (Table 1), 1-(n-Ethoxyphenyl)Cyclopentyl-1-Penicillin] | > 500 | 62.5 | 31.2 (≈ 72.1 µM) | 0.19 | 62.5 (≈ 144 µM) | > 500 | 0.19 | 0.24 | 0.09 | 0.048 | 7.8 (≈ 18 µM) | 24.9 | 1500 | 1.65 | – | – | –
CC1(C)S[C@@H]2[C@H](NC(=O)Cc3ccccc3)C(=O)N2[C@H]1C(=O)O [Benzyl Penicillin, benzylpenicillin, reference compound] | > 500 | 1.56 | 3.12 (≈ 9.33 µM) | 0.78 | 31.2 (≈ 93.3 µM) | > 500 | 0.012 | 0.048 | 0.006 | 0.003 | 0.39 (≈ 1.17 µM) | – | – | – | – | > 500 | 0.035
CCOc1cccc(C2(C(=O)NC3C(=O)N4C3SC(C)(C)C4C(=O)O)CCCC2)c1 (centres unmarked) [Compound VIII (Table 1)] | > 500 | 250 | 125 (≈ 289 µM) | 3.9 | 250 (≈ 578 µM) | > 500 | 0.39 | 0.9 | 0.19 | 0.39 | 31.2 (≈ 72.1 µM) | 10.0 | 1500 | 3.16 | – | > 500 | –
COc1ccccc1C1(C(=O)NC2C(=O)N3C2SC(C)(C)C3C(=O)O)CCCC1 (centres unmarked) [Compound II (Table 1)] | > 500 | 500 | 62.5 (≈ 149 µM) | – | – | > 500 | 0.9 | 3.9 | 0.9 | 0.78 | 62.5 (≈ 149 µM) | 28.8 | 2000 | 3.12 | 250 | > 500 | –
CCCCOc1ccccc1C1(C(=O)NC2C(=O)N3C2SC(C)(C)C3C(=O)O)CCCC1 (centres unmarked) [Compound VI (Table 1), 1-(o-Butoxyphenyl)Cyclopentyl-1-Pencillin] | > 500 | 500 | 250 (≈ 543 µM) | 1.56 | – | > 500 | 0.39 | 15.6 | 0.19 | 0.39 | 125 (≈ 271 µM) | 16.6 | 1000 | 0.247 | 500 | > 500 | –
CCCOc1ccc(C2(C(=O)NC3C(=O)N4C3SC(C)(C)C4C(=O)O)CCCC2)cc1 (centres unmarked) [Compound XIV (Table 1)] | > 500 | 62.5 | 31.2 (≈ 69.9 µM) | 0.9 | 125 (≈ 280 µM) | > 500 | 0.39 | 0.24 | 0.09 | 0.048 | 7.8 (≈ 17.5 µM) | 10.4 | 1500 | 1.48 | – | – | –
CCCCOc1cccc(C2(C(=O)NC3C(=O)N4C3SC(C)(C)C4C(=O)O)CCCC2)c1 (centres unmarked) [Compound XI (Table 1)] | – | 125 | 125 (≈ 271 µM) | 15.6 | 125 (≈ 271 µM) | > 500 | 0.39 | 1.56 | 0.19 | 0.39 | – | 11.2 | 2000 | 4.63 | – | – | –
CC(C)Oc1ccc(C2(C(=O)NC3C(=O)N4C3SC(C)(C)C4C(=O)O)CCCC2)cc1 (centres unmarked) [Compound XV (Table 1)] | > 500 | 62.5 | 31.2 (≈ 69.9 µM) | 0.48 | 25 (≈ 56 µM) | > 500 | 0.19 | 0.24 | 0.19 | 0.09 | 7.8 (≈ 17.5 µM) | 9.4 | 1500 | 2.67 | – | – | –
